Reference: US8173813B2, “Quinolone and tetrahydroquinolone and related compounds having NOS inhibitory activity” (NeurAxon, Inc., priority 2007, dated 2012)
Several values for one entry are separate records, joined by “and”; a condition that tells them apart may be missing. Equal values may be shown once. Where a name gives a salt, the structure may show the parent alone. Read-outs that look alike come from different tables or passages of the source.

Experiments:
Type in all cases: biochemical
[1] = target: Nitric oxide synthase (neuronal, human recombinant) nNOS (Homo sapiens, UniProt P29475); assay: Human nNOS enzyme assay ([3H]L-arginine to [3H]L-citrulline); conditions: for Selectivity eNOS/nNOS: human enzymes, ratio of eNOS IC50 to nNOS IC50; for IC50: read-out: hnNOS IC50
[2] = target: Nitric oxide synthase (endothelial, human recombinant) eNOS (Homo sapiens, UniProt P29474); assay: Human eNOS enzyme assay ([3H]L-arginine to [3H]L-citrulline); conditions: read-out: heNOS IC50
[3] = target: Recombinant human inducible NOS (iNOS) (Homo sapiens, UniProt P35228); assay: Human iNOS enzyme assay, radiometric; conditions: read-out: hiNOS IC50
nNOS (Rat) = nNOS (Rat) (Rattus norvegicus, UniProt P29476); assay: nNOS (Rat) enzyme assay; conditions: for IC50: read-out: nNOS IC50 (rodent data in parentheses); for Selectivity eNOS/nNOS (rodent data in parentheses): rodent enzymes
Method: (§1) nNOS (Rat), eNOS (Rat) and iNOS (Mouse) Enzyme Assay Recombinant rat or mouse NO synthases (iNOS, eNOS, nNOS) were expressed in Sf9 cells (Sigma), 36 mg prot/ml (Bradford). […] Inhibition of NOS was determined by measuring the formation of L-[3H] citrulline from L-[3H] arginine. […] Stop buffer:100 mM Hepes, pH 5.5, 3 mM EDTA, 3 mM EGTA.

eNOS (Rat) = eNOS (Rat) (Rattus norvegicus, UniProt Q62600); assay: eNOS (Rat) enzyme assay; conditions: values in parentheses, read-out: eNOS IC50 (rodent data in parentheses)
iNOS (Mouse) = iNOS (Mouse) (Mus musculus, UniProt P29477); assay: iNOS (Mouse) enzyme assay; conditions: values in parentheses, read-out: iNOS IC50 (rodent data in parentheses)
Method: as §1, with “EGTA. Enzyme and inhibitor were pre-incubated for 35 min in the presence of NADPH before addition of arginine to initiate the reaction.” for “EGTA.”

[4] = human recombinant nNOS, values without parentheses
[5] = human recombinant eNOS, values without parentheses
[6] = human recombinant iNOS, values without parentheses
[7] = rat nNOS, values in parentheses

Sequence of Recombinant human inducible NOS (iNOS) (P35228 whole entry): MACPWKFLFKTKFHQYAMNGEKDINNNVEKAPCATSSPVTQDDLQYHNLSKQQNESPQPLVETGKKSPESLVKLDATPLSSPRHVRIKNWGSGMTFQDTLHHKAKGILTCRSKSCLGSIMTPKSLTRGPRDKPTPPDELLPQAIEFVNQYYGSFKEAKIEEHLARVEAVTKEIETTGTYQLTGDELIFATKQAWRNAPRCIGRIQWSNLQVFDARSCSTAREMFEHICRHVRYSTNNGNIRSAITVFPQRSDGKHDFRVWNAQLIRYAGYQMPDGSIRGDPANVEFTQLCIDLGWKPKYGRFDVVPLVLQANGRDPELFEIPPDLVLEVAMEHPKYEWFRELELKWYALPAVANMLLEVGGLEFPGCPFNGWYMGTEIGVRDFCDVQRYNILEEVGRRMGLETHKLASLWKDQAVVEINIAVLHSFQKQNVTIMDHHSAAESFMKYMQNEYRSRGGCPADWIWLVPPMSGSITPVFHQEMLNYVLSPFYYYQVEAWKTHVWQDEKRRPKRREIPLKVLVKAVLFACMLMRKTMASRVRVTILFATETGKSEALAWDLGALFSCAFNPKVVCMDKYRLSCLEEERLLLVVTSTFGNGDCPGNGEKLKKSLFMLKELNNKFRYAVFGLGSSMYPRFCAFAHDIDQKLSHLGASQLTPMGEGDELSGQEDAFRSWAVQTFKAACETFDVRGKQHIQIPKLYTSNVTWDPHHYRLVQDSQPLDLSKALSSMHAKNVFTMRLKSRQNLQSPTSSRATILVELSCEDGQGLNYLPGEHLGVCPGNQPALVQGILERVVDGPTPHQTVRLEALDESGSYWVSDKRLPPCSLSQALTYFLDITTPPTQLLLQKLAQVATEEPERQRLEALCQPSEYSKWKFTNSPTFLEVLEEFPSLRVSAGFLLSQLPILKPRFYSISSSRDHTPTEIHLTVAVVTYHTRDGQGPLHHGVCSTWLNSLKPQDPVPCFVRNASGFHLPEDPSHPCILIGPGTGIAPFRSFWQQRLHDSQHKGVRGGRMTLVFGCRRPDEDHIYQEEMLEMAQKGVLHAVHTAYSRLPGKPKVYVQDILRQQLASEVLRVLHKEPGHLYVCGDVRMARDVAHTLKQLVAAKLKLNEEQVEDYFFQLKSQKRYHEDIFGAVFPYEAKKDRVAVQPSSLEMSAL
Sequence of eNOS (Rat) (Q62600 2-1202): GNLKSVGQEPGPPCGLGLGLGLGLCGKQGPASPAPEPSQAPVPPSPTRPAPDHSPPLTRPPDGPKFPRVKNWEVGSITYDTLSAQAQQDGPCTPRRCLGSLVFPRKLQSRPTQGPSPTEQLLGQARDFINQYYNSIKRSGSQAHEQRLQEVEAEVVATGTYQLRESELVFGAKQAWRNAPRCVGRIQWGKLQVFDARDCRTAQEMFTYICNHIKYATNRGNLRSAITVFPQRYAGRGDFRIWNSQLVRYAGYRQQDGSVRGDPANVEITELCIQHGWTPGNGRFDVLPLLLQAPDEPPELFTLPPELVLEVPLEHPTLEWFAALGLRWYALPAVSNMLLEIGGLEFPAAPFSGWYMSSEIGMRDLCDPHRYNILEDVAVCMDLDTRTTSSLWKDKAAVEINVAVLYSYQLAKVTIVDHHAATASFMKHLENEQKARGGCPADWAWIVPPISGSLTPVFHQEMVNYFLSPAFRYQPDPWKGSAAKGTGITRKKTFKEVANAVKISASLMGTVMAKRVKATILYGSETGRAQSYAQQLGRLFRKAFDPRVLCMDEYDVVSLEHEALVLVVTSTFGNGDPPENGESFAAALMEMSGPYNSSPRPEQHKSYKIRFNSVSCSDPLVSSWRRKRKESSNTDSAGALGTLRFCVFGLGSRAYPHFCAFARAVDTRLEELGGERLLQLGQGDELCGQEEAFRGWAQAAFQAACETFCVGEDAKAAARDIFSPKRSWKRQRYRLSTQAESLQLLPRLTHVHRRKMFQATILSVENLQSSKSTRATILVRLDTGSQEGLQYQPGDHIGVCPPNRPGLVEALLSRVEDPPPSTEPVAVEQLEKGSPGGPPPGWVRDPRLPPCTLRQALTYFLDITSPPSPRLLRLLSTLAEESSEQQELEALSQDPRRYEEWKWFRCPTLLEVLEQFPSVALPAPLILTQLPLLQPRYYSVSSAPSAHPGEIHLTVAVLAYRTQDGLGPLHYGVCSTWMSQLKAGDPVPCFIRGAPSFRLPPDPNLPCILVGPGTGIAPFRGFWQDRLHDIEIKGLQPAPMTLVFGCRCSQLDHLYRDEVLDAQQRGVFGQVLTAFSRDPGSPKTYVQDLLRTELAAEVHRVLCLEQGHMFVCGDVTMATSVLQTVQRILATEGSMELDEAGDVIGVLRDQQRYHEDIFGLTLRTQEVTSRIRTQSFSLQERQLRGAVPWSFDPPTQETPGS
Sequence of Nitric oxide synthase (neuronal, human recombinant) nNOS (P29475 whole entry): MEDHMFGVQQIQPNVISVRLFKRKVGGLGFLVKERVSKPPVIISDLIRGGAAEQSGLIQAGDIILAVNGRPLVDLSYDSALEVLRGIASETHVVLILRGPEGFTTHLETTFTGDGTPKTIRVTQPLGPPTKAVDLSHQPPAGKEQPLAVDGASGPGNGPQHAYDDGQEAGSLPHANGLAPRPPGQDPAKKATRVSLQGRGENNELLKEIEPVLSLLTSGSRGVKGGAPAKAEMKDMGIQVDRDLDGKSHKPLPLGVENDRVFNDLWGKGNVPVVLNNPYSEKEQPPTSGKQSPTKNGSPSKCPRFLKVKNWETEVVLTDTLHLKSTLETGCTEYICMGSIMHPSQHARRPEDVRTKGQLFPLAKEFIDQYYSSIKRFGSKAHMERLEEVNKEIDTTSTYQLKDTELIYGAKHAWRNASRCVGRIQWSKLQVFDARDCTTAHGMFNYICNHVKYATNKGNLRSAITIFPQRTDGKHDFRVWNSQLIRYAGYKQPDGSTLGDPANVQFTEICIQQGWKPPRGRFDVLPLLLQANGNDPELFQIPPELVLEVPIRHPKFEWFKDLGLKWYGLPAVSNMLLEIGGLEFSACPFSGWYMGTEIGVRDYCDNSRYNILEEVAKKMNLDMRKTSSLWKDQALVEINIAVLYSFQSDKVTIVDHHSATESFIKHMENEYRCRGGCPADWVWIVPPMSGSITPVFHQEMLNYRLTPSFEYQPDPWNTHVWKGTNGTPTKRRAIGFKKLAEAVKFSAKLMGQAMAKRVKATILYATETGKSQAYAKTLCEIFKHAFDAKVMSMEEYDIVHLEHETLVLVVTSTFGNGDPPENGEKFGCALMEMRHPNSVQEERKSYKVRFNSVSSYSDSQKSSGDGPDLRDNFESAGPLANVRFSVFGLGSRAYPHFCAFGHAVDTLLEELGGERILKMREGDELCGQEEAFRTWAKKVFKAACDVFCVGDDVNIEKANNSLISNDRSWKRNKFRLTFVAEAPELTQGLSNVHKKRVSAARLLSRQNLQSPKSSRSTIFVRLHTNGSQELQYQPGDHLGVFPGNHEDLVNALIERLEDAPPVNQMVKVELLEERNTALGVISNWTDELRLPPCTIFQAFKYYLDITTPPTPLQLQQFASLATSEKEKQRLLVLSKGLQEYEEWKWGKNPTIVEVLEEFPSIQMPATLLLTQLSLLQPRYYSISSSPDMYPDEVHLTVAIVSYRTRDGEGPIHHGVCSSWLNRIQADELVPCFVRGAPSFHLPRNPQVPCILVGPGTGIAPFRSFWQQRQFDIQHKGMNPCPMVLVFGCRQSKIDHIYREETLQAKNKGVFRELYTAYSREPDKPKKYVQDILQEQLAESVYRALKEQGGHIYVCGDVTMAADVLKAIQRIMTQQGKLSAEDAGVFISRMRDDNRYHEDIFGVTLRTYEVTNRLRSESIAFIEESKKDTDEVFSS
Sequence of Nitric oxide synthase (endothelial, human recombinant) eNOS (P29474 2-1203): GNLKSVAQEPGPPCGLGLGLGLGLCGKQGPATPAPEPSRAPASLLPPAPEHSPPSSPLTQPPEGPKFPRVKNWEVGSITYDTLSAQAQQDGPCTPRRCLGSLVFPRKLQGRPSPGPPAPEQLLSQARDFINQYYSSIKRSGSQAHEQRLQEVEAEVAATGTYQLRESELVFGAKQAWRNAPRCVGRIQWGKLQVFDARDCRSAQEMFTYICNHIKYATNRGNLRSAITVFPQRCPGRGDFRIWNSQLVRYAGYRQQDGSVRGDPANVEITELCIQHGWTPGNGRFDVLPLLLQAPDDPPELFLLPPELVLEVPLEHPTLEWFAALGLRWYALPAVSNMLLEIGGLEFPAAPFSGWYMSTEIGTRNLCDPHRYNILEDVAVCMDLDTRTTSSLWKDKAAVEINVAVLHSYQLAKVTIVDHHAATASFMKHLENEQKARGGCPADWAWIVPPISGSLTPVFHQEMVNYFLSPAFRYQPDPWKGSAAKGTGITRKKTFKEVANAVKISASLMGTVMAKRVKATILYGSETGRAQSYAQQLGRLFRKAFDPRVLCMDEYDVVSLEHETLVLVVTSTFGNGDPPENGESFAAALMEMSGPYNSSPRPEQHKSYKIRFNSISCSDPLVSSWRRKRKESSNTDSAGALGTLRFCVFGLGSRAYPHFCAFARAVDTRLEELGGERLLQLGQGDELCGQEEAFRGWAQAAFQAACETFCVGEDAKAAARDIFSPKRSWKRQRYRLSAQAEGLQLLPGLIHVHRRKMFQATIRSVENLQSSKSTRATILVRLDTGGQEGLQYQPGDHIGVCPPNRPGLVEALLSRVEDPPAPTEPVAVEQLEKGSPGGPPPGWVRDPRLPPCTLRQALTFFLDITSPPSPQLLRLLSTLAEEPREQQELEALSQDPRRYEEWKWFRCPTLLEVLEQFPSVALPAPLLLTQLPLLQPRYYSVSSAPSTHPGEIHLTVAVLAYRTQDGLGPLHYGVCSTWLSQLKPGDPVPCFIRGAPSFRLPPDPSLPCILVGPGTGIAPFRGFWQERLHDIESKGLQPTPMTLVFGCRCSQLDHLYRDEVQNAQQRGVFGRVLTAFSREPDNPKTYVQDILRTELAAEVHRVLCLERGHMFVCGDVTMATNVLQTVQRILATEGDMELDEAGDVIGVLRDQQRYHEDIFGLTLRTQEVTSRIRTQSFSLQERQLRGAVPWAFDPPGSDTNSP

SMILES | Selectivity eNOS/nNOS [1] | IC50 [1, 4] [nM] | IC50 [2, 5] [µM] | IC50 [3] [µM] | IC50 (nNOS (Rat)) [nM] | Selectivity eNOS/nNOS (rodent data in parentheses) (nNOS (Rat); values in parentheses) | IC50 (eNOS (Rat)) [µM] | IC50 (iNOS (Mouse)) [µM] | IC50 [3, 6] | IC50 (nNOS (Rat); [7]) [nM] | IC50 [1] [nM] | IC50 [2] [µM]
CN1CCCC1CCN1CCCc2cc(NC(=N)c3cccs3)ccc21 (single isomer, unassigned) [Example 24, N-(1-(2-(1-Methylpyrrolidin-2-yl)ethyl)-1,2,3,4-tetrahydroquinolin-6-yl)thiophene-2-carboximidamide] | 91.7 | 170 | 15.4 | 33.2 | 120 | (183) | 22 | > 100 |  |  |  | 
CN1CCC(N2CCCc3cc(NC(=N)c4cccs4)ccc32)C1 (single isomer, unassigned) [Example 56, N-(1-(1-Methylpyrrolidin-3-yl)-1,2,3,4-tetrahydroquinolin-6-yl)thiophene-2-carboximidamide] | 203 | 90 | 18.3 |  |  |  | 4.5 |  | 34 µM | 87 |  | 
CN1CCC(N2CCCc3cc(NC(=N)c4cccs4)ccc32)C1 (single isomer, unassigned) [Example 57, N-(1-(1-Methylpyrrolidin-3-yl)-1,2,3,4-tetrahydroquinolin-6-yl)thiophene-2-carboximidamide] | 622 | 320 | 199 |  |  |  | > 100 |  | 40.4 µM | 504 |  | 
N=C(Nc1ccc2c(c1)CCCN2C1CCNC1)c1cccs1 (single isomer, unassigned; (+)) [Example 66, (+)-N-(1-(pyrrolidin-3-yl)-1,2,3,4-tetrahydroquinolin-6-yl)thiophene-2-carboximidamide dihydrochloride] |  | 10 | 14.2 |  |  |  |  | 2.9 |  | 100 |  | 
N=C(Nc1ccc2c(c1)CCCN2C1CCNC1)c1cccs1 (single isomer, unassigned; (-)) [Example 65, (−)-N-(1-(pyrrolidin-3-yl)-1,2,3,4-tetrahydroquinolin-6-yl)thiophene-2-carboximidamide dihydrochloride] |  | 310 | 22.5 |  |  |  | 9.08 | 7.5 |  | 280 |  | 
N=C(Nc1ccc2c(c1)CCC(=O)N2CCN1CCCCC1)c1cccs1 [Example 1, N-(2-oxo-1-(2-(piperidin-1-yl)ethyl)-1,2,3,4-tetrahydroquinolin-6-yl)thiophene-2-carboximidamide] |  |  |  |  |  |  | 52 | 8.5 | 39 µM | 22 | 780 | 25.2
Cl.Cl.N=C(Nc1ccc2c(c1)CCCN2CCN1CCCC1)c1cccs1 [Example 12, N-(1-(2-(pyrrolidin-1-yl)ethyl)-1,2,3,4-tetrahydroquinolin-6-yl)thiophene-2-carboximidamide dihydrochloride] | 115 | 310 | 36 |  |  |  | > 100 | > 100 |  | 1900 |  | 
CN1CCCC1CCN1CCCc2cc(NC(=N)c3cccs3)ccc21 (centres unmarked) [Example 14, N-(1-(2-(1-methylpyrrolidin-2-yl)ethyl)-1,2,3,4-tetrahydroquinolin-6-yl)thiophene-2-carboximidamide] | 137 |  | 17.4 | > 100 | 170 | (206) | 35 | > 100 |  |  |  | 
N=C(Nc1ccc2c(c1)CCCCN2CCN1CCCC1)c1cccs1 [Example 27, N-(1-(2-(Pyrrolidin-1-yl)ethyl)-2,3,4,5-tetrahydro-1H-benzo[b]azepin-7-yl)thiophene-2-carboximidamide] | 138 | 350 | 48.7 | 54.4 |  | (523) | 42.1 | > 100 |  | 92 |  | 
N=C(Nc1ccc2c(c1)CCCN2C1CCNC1)c1cccs1 (centres unmarked) [Example 29, N-(1-(Pyrrolidin-3-yl)-1,2,3,4-tetrahydroquinolin-6-yl)thiophene-2-carboximidamide dihydrochloride] |  |  |  |  |  |  | > 100 | > 100 | 15.6 µM and 6.94 µM | 150 | 250 | 23.5
CN1CCC(N2CCCc3cc(NC(=N)c4cccs4)ccc32)C1 (centres unmarked) [Example 35, N-(1-(1-Methylpyrrolidin-3-yl)-1,2,3,4-tetrahydroquinolin-6-yl)thiophene-2-carboximidamide] |  |  |  |  |  |  |  |  | 4.9 µM |  | 360 | 27.5
N=C(Nc1ccc2c(c1)CCCC(=O)N2CCN1CCCCC1)c1cccs1 [Example 38, N-(2-Oxo-1-(2-(piperidin-1-yl)ethyl)-2,3,4,5-tetrahydro-1H-benzo[b]azepin-7-yl)thiophene-2-carboximidamide] | 14.8 | 10000 | 148 |  |  |  |  |  | 8.21 µM |  |  | 
CN1CCC(N2CCCCc3cc(NC(=N)c4cccs4)ccc32)CC1 [Example 39, N-(1-(1-Methylpiperidin-4-yl)-2,3,4,5-tetrahydro-1H-benzo[b]azepin-7-yl)thiophene-2-carboximidamide] |  |  |  | 1.34 |  |  |  |  |  |  | 2960 | 20
N=C(Nc1ccc2c(c1)CCCCN2CCN1CCCCC1)c1cccs1 [Example 40, N-(1-(2-(Piperidin-1-yl)ethyl)-2,3,4,5-tetrahydro-1H-benzo[b]azepin-7-yl)thiophene-2-carboximidamide] |  | 1900 |  |  |  |  |  |  | > 100 µM |  |  | 56.3
CN(C)CCN1C(=O)CCc2cc(NC(=N)c3cccs3)cc(F)c21 [Example 41, N-(1-(2-(Dimethylamino)ethyl)-8-fluoro-2-oxo-1,2,3,4-tetrahydroquinolin-6-yl)thiophene-2-carboximidamide] |  | 3300 |  |  |  |  |  |  | 3.27 µM |  |  | 194
CN(C)CCN1CCCc2cc(NC(=N)c3cccs3)cc(F)c21 [Example 42, N-(1-(2-(Dimethylamino)ethyl)-8-fluoro-1,2,3,4-tetrahydroquinolin-6-yl)thiophene-2-carboximidamide] |  | 90 |  |  |  |  |  |  | > 100 µM |  |  | 24.3
N=C(Nc1ccc2c(c1)C(C1CCNC1)C(=O)N2)c1cccs1 (centres unmarked) [Example 43, N-(2-Oxo-3-(pyrrolidin-3-yl)indolin-5-yl)thiophene-2-carboximidamide] | 152 | 180 | 27.4 |  |  |  |  |  | 7.03 µM |  |  | 
N=C(Nc1ccc2c(c1)CCCCN2C1CCNC1)c1cccs1 (centres unmarked) [Example 48, N-(1-(Pyrrolidin-3-yl)-2,3,4,5-tetrahydro-1H-benzo[b]azepin-7-yl)thiophene-2-carboximidamide] |  |  |  |  |  |  |  |  | 0.61 µM |  | 330 | 75
CN1CCCC1CCN1CCCc2cc(NC(=N)c3cccs3)cc(F)c21.Cl.Cl (centres unmarked) [Example 55, N-(8-Fluoro-1-(2-(1-methylpyrrolidin-2-yl)ethyl)-1,2,3,4-tetrahydroquinolin-6-yl)thiophene-2-carboximidamide dihydrochloride] | 181 | 80 | 14.5 |  |  |  |  |  | > 100 µM |  |  | 
N=C(Nc1ccc2c(c1)CCCCN2C1CCNCC1)c1cccs1 [Example 58, N-(1-(piperidin-4-yl)-2,3,4,5-tetrahydro-1H-benzo[b]azepin-7-yl)thiophene-2-carboximidamide] |  | 2300 |  |  |  |  |  |  | > 100 µM |  |  | 66.3
CN(C)CCCN1CCCc2cc(NC(=N)c3cccs3)ccc21 [Example 59, N-(1-(3-(Dimethylamino)propyl)-1,2,3,4-tetrahydroquinolin-6-yl)thiophene-2-carboximidamide] |  | 270 |  |  |  |  |  |  | 34.5 µM |  |  | 22.4
CCNCCN1CCCc2cc(NC(=N)c3cccs3)ccc21 [Example 60, N-(1-(2-(Ethylamino)ethyl)-1,2,3,4-tetrahydroquinolin-6-yl)thiophene-2-carboximidamide] | 135 | 390 | 52.8 |  |  | (>227) | > 100 |  | 16.6 µM | 440 |  | 
CN(CCO)CCN1CCCc2cc(NC(=N)c3cccs3)ccc21 [Example 62, N-(1-(2-((2-Hydroxyethyl)(methyl)amino)ethyl)-1,2,3,4-tetrahydroquinolin-6-yl)thiophene-2-carboximidamide] | 492 | 130 | 63.9 |  |  |  |  | 7 |  | 940 |  | 
